Species: Rattus norvegicus
Assay: DrugMatrix - Regimen: Daily Repeat
Format: toxicity, organism-based, Sprague-Dawley
Design: regimen Daily Repeat, gender Male, age 6-8 weeks
Settings: in vivo, sc, 0 mg/kg, route mini-PUMP - SUBCUTANEOUS, dose level Control, vehicle 100 % SALINE; for ABSOLUTE BASOPHIL / ABSOLUTE EOSINOPHIL / ABSOLUTE LYMPHOCYTE / ABSOLUTE MONOCYTE / ABSOLUTE SEGMENTED NEUTROPHIL / BASOPHIL / EOSINOPHIL / ERYTHROCYTE COUNT / HEMATOCRIT / HEMOGLOBIN / LEUKOCYTE COUNT / LYMPHOCYTE / MEAN CORPUSCULAR HEMOGLOBIN / MEAN CORPUSCULAR HEMOGLOBIN CONCENTRATION / MEAN CORPUSCULAR VOLUME / MONOCYTE / NEUTROPHIL / NUCLEATED RED BLOOD CELLS / PLATELET COUNT: tissue Blood; for ALANINE AMINOTRANSFERASE / ALBUMIN / ALKALINE PHOSPHATASE / ASPARTATE AMINOTRANSFERASE / BLOOD UREA NITROGEN / CARBON DIOXIDE / CHLORIDE / CHOLESTEROL / CREATININE / GLUCOSE / LACTATE DEHYDROGENASE / LIPASE / PHOSPHORUS / POTASSIUM / SODIUM / TOTAL BILIRUBIN / TOTAL PROTEIN / URIC ACID: tissue Plasma

In the case of `C[C@]12CCC(=O)C=C1CC[C@@H]1[C@@H]2[C@@H](O)C[C@]2(C=O)[C@@H](C(=O)CO)CC[C@@H]12` [ALDOSTERONE], the “ABSOLUTE BASOPHIL” value (72 h, time 3 day) was 0 CELLS/uL, the “ABSOLUTE EOSINOPHIL” value (72 h, time 3 day) was 77.17 CELLS/uL and the “ABSOLUTE LYMPHOCYTE” value (72 h, time 3 day) was 14293.83 CELLS/uL. For the same compound, the “ABSOLUTE MONOCYTE” value (72 h, time 3 day) was 354 CELLS/uL, the “ABSOLUTE SEGMENTED NEUTROPHIL” value (72 h, time 3 day) was 1658.33 CELLS/uL and the BASOPHIL (72 h, time 3 day) was 0%. For the same compound, the EOSINOPHIL (72 h, time 3 day) was 0.5%, the “ERYTHROCYTE COUNT” value (72 h, time 3 day) was 6.27 x10E6/uL and the HEMATOCRIT (72 h, time 3 day) was 36.95%. For the same compound, the HEMOGLOBIN (72 h, time 3 day) was 13.4 G/DL, the “LEUKOCYTE COUNT” value (72 h, time 3 day) was 16.38 x10E3/uL and the LYMPHOCYTE (72 h, time 3 day) was 87.17%. The “MEAN CORPUSCULAR HEMOGLOBIN” value (72 h, time 3 day) was 21.42 pg, the “MEAN CORPUSCULAR HEMOGLOBIN CONCENTRATION” value (72 h, time 3 day) was 36.27 G/DL and the “MEAN CORPUSCULAR VOLUME” value (72 h, time 3 day) was 59.03 fL. The MONOCYTE (72 h, time 3 day) was 2%, the NEUTROPHIL (72 h, time 3 day) was 10.33% and the “NUCLEATED RED BLOOD CELLS” value (72 h, time 3 day) was 0 /100WBC. For the same compound, the “PLATELET COUNT” value (72 h, time 3 day) was 904.67 x10E3/uL, the “ALANINE AMINOTRANSFERASE” value (72 h, time 3 day) was 48.33 u/L and the ALBUMIN (72 h, time 3 day) was 3.82 G/DL. The “ALKALINE PHOSPHATASE” value (72 h, time 3 day) was 282.33 u/L, the “ASPARTATE AMINOTRANSFERASE” value (72 h, time 3 day) was 86.83 u/L and the “BLOOD UREA NITROGEN” value (72 h, time 3 day) was 20.17 mg/dL. The “CARBON DIOXIDE” value (72 h, time 3 day) was 34.67 mmol/L, the CHLORIDE (72 h, time 3 day) was 102 MEQ/L and the CHOLESTEROL (72 h, time 3 day) was 71.5 mg/dL. The CREATININE (72 h, time 3 day) was 0.2 mg/dL, the GLUCOSE (72 h, time 3 day) was 136.83 mg/dL and the “LACTATE DEHYDROGENASE” value (72 h, time 3 day) was 159 u/L. It also gave an LIPASE (72 h, time 3 day) of 9 u/L, a PHOSPHORUS (72 h, time 3 day) of 10.12 mg/dL and a POTASSIUM (72 h, time 3 day) of 5.92 MEQ/L. The SODIUM (72 h, time 3 day) was 147.8 MEQ/L, the “TOTAL BILIRUBIN” value (72 h, time 3 day) was 0.2 mg/dL and the “TOTAL PROTEIN” value (72 h, time 3 day) was 6.05 G/DL. The “URIC ACID” value (72 h, time 3 day) was 1.4 mg/dL, the “ABSOLUTE BASOPHIL” value (120 h, time 5 day) was 0 CELLS/uL and the “ABSOLUTE EOSINOPHIL” value (120 h, time 5 day) was 0 CELLS/uL. The “ABSOLUTE LYMPHOCYTE” value (120 h, time 5 day) was 14257.33 CELLS/uL, the “ABSOLUTE MONOCYTE” value (120 h, time 5 day) was 326 CELLS/uL and the “ABSOLUTE SEGMENTED NEUTROPHIL” value (120 h, time 5 day) was 3216.67 CELLS/uL. For the same compound, the BASOPHIL (120 h, time 5 day) was 0%, the EOSINOPHIL (120 h, time 5 day) was 0% and the “ERYTHROCYTE COUNT” value (120 h, time 5 day) was 6.11 x10E6/uL. The HEMATOCRIT (120 h, time 5 day) was 36.22%, the HEMOGLOBIN (120 h, time 5 day) was 13.18 G/DL and the “LEUKOCYTE COUNT” value (120 h, time 5 day) was 17.8 x10E3/uL. For the same compound, the LYMPHOCYTE (120 h, time 5 day) was 80.5%, the “MEAN CORPUSCULAR HEMOGLOBIN” value (120 h, time 5 day) was 21.62 pg and the “MEAN CORPUSCULAR HEMOGLOBIN CONCENTRATION” value (120 h, time 5 day) was 36.42 G/DL. For the same compound, the “MEAN CORPUSCULAR VOLUME” value (120 h, time 5 day) was 59.37 fL, the MONOCYTE (120 h, time 5 day) was 1.83% and the NEUTROPHIL (120 h, time 5 day) was 17.67%. For the same compound, the “NUCLEATED RED BLOOD CELLS” value (120 h, time 5 day) was 0 /100WBC, the “PLATELET COUNT” value (120 h, time 5 day) was 1311 x10E3/uL and the “ALANINE AMINOTRANSFERASE” value (120 h, time 5 day) was 47 u/L. The ALBUMIN (120 h, time 5 day) was 3.83 G/DL, the “ALKALINE PHOSPHATASE” value (120 h, time 5 day) was 260.33 u/L and the “ASPARTATE AMINOTRANSFERASE” value (120 h, time 5 day) was 76.17 u/L. For the same compound, the “BLOOD UREA NITROGEN” value (120 h, time 5 day) was 14.67 mg/dL, the “CARBON DIOXIDE” value (120 h, time 5 day) was 31.33 mmol/L and the CHLORIDE (120 h, time 5 day) was 101.17 MEQ/L. It also gave a CHOLESTEROL (120 h, time 5 day) of 75 mg/dL, a CREATININE (120 h, time 5 day) of 0.16 mg/dL and a GLUCOSE (120 h, time 5 day) of 152.67 mg/dL. The “LACTATE DEHYDROGENASE” value (120 h, time 5 day) was 147.33 u/L, the LIPASE (120 h, time 5 day) was 9.33 u/L and the PHOSPHORUS (120 h, time 5 day) was 10.97 mg/dL. For the same compound, the POTASSIUM (120 h, time 5 day) was 6 MEQ/L, the SODIUM (120 h, time 5 day) was 145.52 MEQ/L and the “TOTAL BILIRUBIN” value (120 h, time 5 day) was 0.17 mg/dL. The “TOTAL PROTEIN” value (120 h, time 5 day) was 5.83 G/DL, the “URIC ACID” value (120 h, time 5 day) was 1.27 mg/dL and the “ABSOLUTE BASOPHIL” value ([…], time 14 day) was 0 CELLS/uL. The “ABSOLUTE EOSINOPHIL” value ([…], time 14 day) was 64.5 CELLS/uL, the “ABSOLUTE LYMPHOCYTE” value ([…], time 14 day) was 12507.83 CELLS/uL and the “ABSOLUTE MONOCYTE” value ([…], time 14 day) was 380.33 CELLS/uL. The “ABSOLUTE SEGMENTED NEUTROPHIL” value ([…], time 14 day) was 2414 CELLS/uL, the BASOPHIL ([…], time 14 day) was 0% and the EOSINOPHIL ([…], time 14 day) was 0.5%. For the same compound, the “ERYTHROCYTE COUNT” value ([…], time 14 day) was 6.1 x10E6/uL, the HEMATOCRIT ([…], time 14 day) was 35.4% and the HEMOGLOBIN ([…], time 14 day) was 12.88 G/DL. The “LEUKOCYTE COUNT” value ([…], time 14 day) was 15.37 x10E3/uL, the LYMPHOCYTE ([…], time 14 day) was 80.83% and the “MEAN CORPUSCULAR HEMOGLOBIN” value ([…], time 14 day) was 21.18 pg. For the same compound, the “MEAN CORPUSCULAR HEMOGLOBIN CONCENTRATION” value ([…], time 14 day) was 36.43 G/DL, the “MEAN CORPUSCULAR VOLUME” value ([…], time 14 day) was 58.17 fL and the MONOCYTE ([…], time 14 day) was 2.17%. The NEUTROPHIL ([…], time 14 day) was 16.5%, the “NUCLEATED RED BLOOD CELLS” value ([…], time 14 day) was 0.17 /100WBC and the “PLATELET COUNT” value ([…], time 14 day) was 1016 x10E3/uL. The “ALANINE AMINOTRANSFERASE” value ([…], time 14 day) was 53.33 u/L, the ALBUMIN ([…], time 14 day) was 3.93 G/DL and the “ALKALINE PHOSPHATASE” value ([…], time 14 day) was 319.83 u/L. For the same compound, the “ASPARTATE AMINOTRANSFERASE” value ([…], time 14 day) was 84 u/L, the “BLOOD UREA NITROGEN” value ([…], time 14 day) was 15.5 mg/dL and the “CARBON DIOXIDE” value ([…], time 14 day) was 34 mmol/L. It also gave a CHLORIDE ([…], time 14 day) of 101.83 MEQ/L, a CHOLESTEROL ([…], time 14 day) of 57 mg/dL and a CREATININE ([…], time 14 day) of 0.21 mg/dL. For the same compound, the GLUCOSE ([…], time 14 day) was 182.33 mg/dL, the “LACTATE DEHYDROGENASE” value ([…], time 14 day) was 104.67 u/L and the LIPASE ([…], time 14 day) was 9.17 u/L. It also gave a PHOSPHORUS ([…], time 14 day) of 11.12 mg/dL, a POTASSIUM ([…], time 14 day) of 5.81 MEQ/L and an SODIUM ([…], time 14 day) of 144.85 MEQ/L. For the same compound, the “TOTAL BILIRUBIN” value ([…], time 14 day) was 0.18 mg/dL, the “TOTAL PROTEIN” value ([…], time 14 day) was 5.92 G/DL and the “URIC ACID” value ([…], time 14 day) was 1.38 mg/dL.

— ChEMBL document CHEMBL3885881, “DrugMatrix”
